Usually Kd stands for the constant that tells how readily two partners part at equilibrium.

These results are taken from patent US12648945B2, “Compositions and methods for treating systemic lupus erythematosus” (ASCENTAGE PHARMA (SUZHOU) CO., LTD., priority 2020, dated 2026).

The subject of experiment [1] is MRL/lpr mice. As to the kind of experiment: Flow cytometry lymphocyte counts in PBMC, spleen and kidney of MRL/lpr mice. It counts as in vivo, mouse. Conditions: 100 mg/kg po qd. The source says:
(§1) Female MRL/MpJ-Fas lpr/J mice (18-20 g, 7-8 weeks old) were obtained from The Jackson Laboratory. These mice are homozygous for the lymphoproliferation spontaneous mutation (Fas^lpr), and show systemic autoimmunity, massive lymphadenopathy associated with proliferation of aberrant T cells, arthritis, and immune complex glomerulonephrosis. Thus, these mice are useful as a model in the study of systemic lupus erythematosus (SLE).
(§2) Animals were housed and handled in a temperature-controlled environment with a 12-h light/12-h dark cycle. […] The protocols and procedures involving the care and use of animals were approved by the Institutional Animal Care and Use Committee (IACUC) of WuXiAppTec (Shanghai) Co., Ltd. (Shanghai, China).
The spleens and kidneys were harvested from the mice at the conclusion of the study (week 18) and digested into single-cell suspensions. Peripheral blood mononuclear cell (PBMC) were obtained after lysing red blood cells in the whole blood. Cells were stained with the following florescence-labelled antibodies: PerCP-Cyanine5.5-conjugated anti-mouse CD8a (BD Biosciences), AF700-conjugated anti-mouse CD3 (BD Biosciences), PE-eFluor610-conjugated anti-mouse B220 (BD Biosciences), e506-conjugated anti-mouse CD45 (BD Biosciences), BV605-conjugated anti-mouse CD138 (BioLegend), and BV711-conjugated anti-mouse CD4 (BioLegend).
All cells were primarily gated on live lymphocytes based on forward scatter (FCS) and side scatter (SSC). Samples were analyzed on a flow cytometer (BD FACSCalibur, USA) to count the number of each subtype of lymphocytes.
Of note, the reduction of double negative T cells were most significant compared to other lymphocytes. […] Without being bound by theory, the reduced infiltration by pro-inflammatory CD4+ cells and double-negative T cells may be responsible in part for the observed efficacy in treating lupus nephritis.
Background: Flow cytometry measures light scatter and fluorescence of single cells or particles in a stream.

Experiment [2] relates to MRL/lpr mice. As to the kind of experiment: Serum anti-dsDNA autoantibody ELISA in MRL/lpr mouse model of SLE. It counts as in vivo. Conditions: end of study.
Description: as §1, §2
Anti-dsDNA autoantibody levels were measured by ELISA. Briefly, a 96-well flat plate was coated with 10 μg/mL calf thymus ds-DNA (Sigma-Aldrich, MA, USA) at 4° C. overnight. After washing with PBS containing 0.05% Tween 20 (PBS-T) and blocking with 1% bovine serum albumin, serum samples (4000× dilution) were added and incubated for 1 h at room temperature. […] Lastly, ultra TMB-ELISA substrate solution (Pierce Biotechnology, IL, USA) was added and incubated for another 30 min, and the OD values at […] were recorded after the reaction was stopped.
For orientation: ELISA stands for enzyme-linked immunosorbent assay.

Experiment [3] relates to MRL/lpr mice. As to the kind of experiment: Urine protein (Coomassie Brilliant Blue assay) in MRL/lpr mouse model of SLE. It counts as in vivo. Conditions: week 18.
Description: as §1, §2
Urine protein was individually evaluated in each mouse on a biweekly basis using Coomassie Brilliant Blue (CBB) assay with a urine protein test kit (Nanjing Jiancheng Biotechnology Institute, Jiangsu, China).

The test system of experiment [4] is MRL/lpr mice. As to the kind of experiment: Lymph node (lymphadenopathy) score in MRL/lpr mouse model of SLE. It counts as in vivo. Particulars: week 18, p<0.0001 vs vehicle.
Description: as §1, §2
Lymph nodes were scored weekly throughout the study, and were expressed using a scoring system from 0 to 6 based on the diameter of lymph nodes (0—normal; 1—<1 cm in one site; 2—<1 cm in two sites; 3—<1 cm in three sites; 4—>1 cm in one site and <1 cm in two sites); 5—>1 cm in two sites and <1 cm in one site; 6—>1 cm in three sites).

In experiment [5] the test system is MRL/lpr mice. As to the kind of experiment: Kidney histopathological scores of lupus nephritis in MRL/lpr mouse model of SLE. Type of experiment: in vivo. Conditions: week 18.
Description: as §1, §2
At the end of the study, the spleen and lymph nodes were collected and weighed. […] The histopathological score was evaluated microscopically in a blinded manner, vide infra.
The histopathological score was evaluated microscopically in a blinded manner. The […] glomerulonephritis score (GN score) was evaluated using scoring from 0 to 4 (0—normal; 1—mild, focal or early proliferation; 2—moderate or definite proliferation and increased matrix; 3—diffuse and focal or diffuse proliferation; 4—severe diffuse proliferation with crescent/sclerosis). […]

Experiment [6] has as its system MRL/lpr mice. As to the kind of experiment: Skin lesion score in MRL/lpr mouse model of SLE. Type of experiment: in vivo. Conditions: week 18, p<0.0001 vs vehicle.
Description: as §1, §2
Skin lesions were scored every week starting from week 12 and were expressed using a scoring system from 0 to 4 (0—normal; 1—small lesion with diameter between 2 to 4 mm; 2—lesion area
<0.5 cm^2; 3—lesion area between 0.5 cm^2 to 1 cm^2; 4—lesion area >1 cm^2).

In the next experiment the target is Mcl-1 (Homo sapiens, UniProt Q07820). The experiment can be described thus: FP saturation binding of fluorescent probe to Mcl-1. Particulars: 2 nM probe. The source says: Bcl-XL, and Mcl-1, respectively.
Sequence of Mcl-1 (Q07820 whole entry): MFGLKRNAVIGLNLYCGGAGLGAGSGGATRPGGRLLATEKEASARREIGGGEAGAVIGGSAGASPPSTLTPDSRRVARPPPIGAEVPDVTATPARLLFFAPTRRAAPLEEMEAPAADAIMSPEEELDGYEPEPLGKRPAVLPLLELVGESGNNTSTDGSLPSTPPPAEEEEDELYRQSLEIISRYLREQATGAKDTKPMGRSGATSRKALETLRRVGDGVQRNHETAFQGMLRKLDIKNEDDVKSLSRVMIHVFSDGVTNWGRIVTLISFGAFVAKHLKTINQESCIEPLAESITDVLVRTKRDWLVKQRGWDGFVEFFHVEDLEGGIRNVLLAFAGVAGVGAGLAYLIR
The mark [7] stands for this setting: 30 mg/kg po qd, p<0.05 vs vehicle.
Setting [8] is: 100 mg/kg po qd, p<0.0001 vs vehicle.

As for `O=C(NS(=O)(=O)c1ccc(NC[C@H]2COCCO2)c([N+](=O)[O-])c1)c1ccc(N2CCN(CC3=C(c4ccc(Cl)cc4)CC4(CCC4)CC3)CC2)cc1Oc1cnc2[nH]ccc2c1` [Compound 1, (S)-N-((4-(((1,4-dioxan-2-yl)methyl)amino)-3-nitrophenyl)sulfonyl)-2-((1H-pyrrolo[2,3-b]pyridin-5-yl)oxy)-4-(4-((6-(4-chlorophenyl)spiro[3.5]non-6-en-7-yl)methyl)piperazin-1-yl)benzamide], the “number of lymphocytes in PBMC (total, T, CD4+ T, CD8+ T, double-negative T, B, activated B, plasmablasts, plasma cells, CD138+ cells)” value in the experiment on MRL/lpr mice [1] (week 18, PBMC (FIG. 6)) was “significantly reduced”. Further, in the experiment with MRL/lpr mice [1] (week 18, kidney (FIG. 8)), the “number of pro-inflammatory CD4+ T cells and double-negative T cells in the kidney” value is “significantly reduced”. In addition, the “number of lymphocytes in spleen (total, T, CD4+ T, CD8+ T, double-negative T, B, activated B, plasmablasts, plasma cells, CD138+ cells)” value with MRL/lpr mice [1] (week 18, spleen (FIG. 7)) was “significantly reduced”. The “serum anti-dsDNA autoantibody level, % of the vehicle group” value is 76.8% in the experiment on MRL/lpr mice [2] (setting [7]) and 56.4% in the experiment on MRL/lpr mice [2] (setting [8]). The urine protein level in the experiment with MRL/lpr mice [3] (setting [7]) turned out to be 536.1 ± 146.8 mg/L; in the experiment on MRL/lpr mice [3] (setting [8]), 266.8 ± 37.7 mg/L. In addition, the “lymphadenopathy score (0 to 6)” value in the experiment on MRL/lpr mice [4] (30 mg/kg po qd) is reported as 2.7±0.4; with MRL/lpr mice [4] (100 mg/kg po qd) it was 1.6±0.4. Moreover, in the experiment on MRL/lpr mice [5] (100 mg/kg po qd), the “individual and total lupus nephritis pathological scores, significance” value is listed as “Statistical significance was achieved”. Moreover, the “pathological score (glomerulonephritis, interstitial nephritis, vasculitis)” value in the experiment on MRL/lpr mice [5] (30 and 100 mg/kg po qd) was “dose-dependently reduced”. For the same compound, the skin lesion score entry in the experiment with MRL/lpr mice [6] (30 mg/kg po qd) and with MRL/lpr mice [6] (100 mg/kg po qd) was “significantly reduced” throughout.
The compound “Flu-BID: Fluorescein labeled BID (79-99) peptide, fluorescent probe in FP assay for Mcl-1” showed a Kd in the experiment with Mcl-1 of 6.9 ± 0.9 nM.
